≈ marks a conversion by molar mass, not a printed value.
Experiments:
[1] = Selectivity index, ratio of CC50 for African green monkey Vero cells to EC50 for Chikungunya virus 899; format: toxicity; details: read-out: Ratio CC50/EC50
[2] = Cytotoxicity against African green monkey Vero cells assessed as reduction in cell viability after 18 hrs by […]; format: cell-based; details: chlorocebus sabaeus
Chikungunya virus [3] = test: Antiviral activity against Chikungunya virus 899 infected in African green monkey Vero cells by MTS assay; format: functional, organism-based; details: Chikungunya virus, 899, Vero
Chikungunya virus [4] = test: Antiviral activity against Chikungunya virus infected in African green monkey Vero cells assessed as inhibition of virus-induced cytopathogenic effect measured on day 6 to 7 post infection by MTS dye-based microscopic analysis; format: functional, organism-based; details: 144 h
[5] = Cytotoxicity against African green monkey Vero cells assessed as reduction in cell viability measured on day 6 to 7 post infection by MTS dye-based microscopic analysis; details: chlorocebus sabaeus
Chikungunya virus [6] = test: Antiviral activity against Chikungunya virus infected in African green monkey Vero cells after 72 hrs by MTT dye-based assay; format: functional, organism-based
[7] = Selectivity index, ratio of CC50 for African green monkey Vero cells to IC50 for Chikungunya virus MY/065/08/FN295485; format: toxicity; details: read-out: Ratio IC50
[8] = Binding affinity to Chikungunya virus […]
Chikungunya virus [9] = test: Antiviral activity against Chikungunya virus MY/065/08/FN295485 infected in African green monkey Vero cells assessed as reduction in virus yield after 48 hrs by titration assay; format: functional, organism-based; details: MY/065/08/FN295485, Vero
[10] = Selectivity index, ratio of CC50 for BHK cells to IC50 for Chikungunya virus LR2006 OPY1; format: toxicity; details: hamster, read-out: Ratio CC50/IC50
Chikungunya virus [11] = test: Antiviral activity against Chikungunya virus LR2006 OPY1 infected in BHK cells measured at 14 hrs post infection by luciferase reporter gene assay; format: functional, organism-based
[12] = Cytotoxicity against BHK cells assessed as reduction in cell viability after 48 hrs in presence of ATP by Celltiter-Glo luminescent assay; format: cell-based, Mesocricetus auratus; details: hamster
Chikungunya virus [13] = test: Antiviral activity against Chikungunya virus infected in African green monkey Vero cells; format: functional, organism-based

For O=c1cc(CSc2nc(O)c3ccccc3n2)c2ccc(O)cc2o1, the selectivity ratio [1] was over 1.5, the CC50 at 18 h [2] was over 284 µM and the EC50 (Chikungunya virus [3]) was 192 µM.
With C=C(C)[C@@]1(O)[C@@H]2OC3(c4ccccc4)O[C@H]1[C@@H](C)[C@]1(O3)C3=CC(=C(Cl)Cl)[C@H](OC(=O)c4ccccc4)[C@@]3(O)[C@H](OC(C)=O)[C@@]3(COC(C)=O)O[C@H]3[C@@H]21 the EC50 (Chikungunya virus [4]) was 1.5 µM and the CC50 [5] was 35 µM.
Compound C=C(C)[C@@]1(Oc2ccccc2)[C@@H]2OC3(c4ccccc4)O[C@H]1[C@@H](C)[C@]1(O3)C3=CC(=C(Cl)Cl)C[C@@]3(O)C[C@@]3(Cc4ccccc4)O[C@H]3[C@@H]21 has an EC50 (Chikungunya virus [4]) of 2.6 µM and a CC50 [5] of 93 µM.
In the case of Cc1ccc2nc(SCc3cc(=O)oc4cc(OS(=O)(=O)c5ccc([N+](=O)[O-])cc5)ccc34)[nH]c(=O)c2c1, the EC50 (Chikungunya virus [3]) is reported as over 199 µM.
With Cc1ccc(S(=O)(=O)Oc2ccc3c(CSC4=NCCC(=O)N4)cc(=O)oc3c2)cc1 the selectivity ratio [1] was 2.6, the CC50 at 18 h [2] was 60.2 µM and the EC50 (Chikungunya virus [3]) was 23.1 µM.
Compound Cc1cnc(SCc2cc(=O)oc3cc(OCc4ccc(F)cc4)ccc23)[nH]c1=O has a selectivity ratio [1] of 2.3, a CC50 at 18 h [2] of 104 µM and an EC50 (Chikungunya virus [3]) of 45.1 µM.
With O=c1cc(CSc2nc3ccccc3c(=O)[nH]2)c2ccc(OS(=O)(=O)c3ccc([N+](=O)[O-])cc3)cc2o1 the selectivity ratio [1] was 2.2, the CC50 at 18 h [2] was 117 µM and the EC50 (Chikungunya virus [3]) was 54.5 µM.
O=c1ccnc(SCc2cc(=O)oc3cc(OCc4ccccc4)ccc23)[nH]1 gave an EC50 (Chikungunya virus [3]) of over 255 µM.
Compound O=c1cc(CSc2nc3ccccc3c(=O)[nH]2)c2ccc(OS(=O)(=O)c3ccccc3)cc2o1 has a selectivity ratio [1] of 9.3, a CC50 at 18 h [2] of 178 µM and an EC50 (Chikungunya virus [3]) of 19.1 µM.
With C=C(C)[C@@]1(Oc2ccccc2)[C@@H]2OC3(c4ccccc4)O[C@H]1[C@@H](C)[C@]1(O3)C3=CC(=C(Cl)Cl)[C@H](c4ccccc4)[C@@]3(O)C[C@@]3(C)O[C@H]3[C@@H]21 the EC50 (Chikungunya virus [4]) was 3 µM and the CC50 [5] was 23.1 µM.
In the case of Cc1ccc2nc(SCc3cc(=O)oc4cc(OS(=O)(=O)c5ccccc5[N+](=O)[O-])ccc34)[nH]c(=O)c2c1, the selectivity ratio [1] is reported as 5.6, the CC50 at 18 h [2] is reported as 107 µM and the EC50 (Chikungunya virus [3]) is reported as 19 µM.
Work on O=C1CCN=C(SCc2cc(=O)oc3cc(OS(=O)(=O)c4ccccc4[N+](=O)[O-])ccc23)N1 yielded a selectivity ratio [1] of 5.8, a CC50 at 18 h [2] of 75.2 µM and an EC50 (Chikungunya virus [3]) of 13 µM.
With Cc1ccc(S(=O)(=O)Oc2ccc3c(CSc4nc5ccc(C)cc5c(=O)[nH]4)cc(=O)oc3c2)cc1 the selectivity ratio [1] was 4.3, the CC50 at 18 h [2] was 114 µM and the EC50 (Chikungunya virus [3]) was 26.4 µM.
Work on CC1CCCCCCCC(C)C(=O)O[C@H]2/C(=C/Cl)C=C3[C@]45OC6(c7ccccc7)O[C@H]([C@@H]4[C@@H]4O[C@]4(CO)C[C@@]32O)[C@@](O)([C@@H](O6)[C@H]5C)C(O)(COC(=O)c2ccccc2O)C1 (stereo not given in full) yielded an EC50 (Chikungunya virus [4]) of 1.9 µM and a CC50 [5] of 4.6 µM.
Cc1cnc(SCc2cc(=O)oc3cc(OCc4ccccc4)ccc23)[nH]c1=O showed an EC50 (Chikungunya virus [3]) of over 246 µM.
For Cc1ccc2nc(SCc3cc(=O)oc4cc(OS(=O)(=O)c5ccccc5)ccc34)[nH]c(=O)c2c1, the selectivity ratio [1] was 2.2, the CC50 at 18 h [2] was 126 µM and the EC50 (Chikungunya virus [3]) was 58 µM.
Compound O=c1cc(CSc2nc3ccccc3c(=O)[nH]2)c2ccc(OS(=O)(=O)c3ccc(F)cc3)cc2o1 has a selectivity ratio [1] of 1.6, a CC50 at 18 h [2] of 30 µM and an EC50 (Chikungunya virus [3]) of 18.4 µM.
For O=C1CCN=C(SCc2cc(=O)oc3cc(OS(=O)(=O)c4ccc(F)cc4)ccc23)N1, the CC50 at 18 h [2] was 111 µM and the EC50 (Chikungunya virus [3]) was 128 µM.
Work on Cc1ccc2nc(SCc3cc(=O)oc4cc(OS(=O)(=O)c5ccc(F)cc5)ccc34)[nH]c(=O)c2c1 yielded a CC50 at 18 h [2] of 86.4 µM and an EC50 (Chikungunya virus [3]) of 116 µM.
With Cc1cnc(SCc2cc(=O)oc3cc(O)ccc23)[nH]c1=O the EC50 (Chikungunya virus [3]) was over 316 µM.
For CC1CCCCCCCC(C)C(=O)O[C@H]2/C(=C/Cl)C=C3[C@]45OC6(c7ccccc7)O[C@H]([C@@H]4[C@@H]4O[C@]4(CO)C[C@@]32O)[C@@](O)([C@@H](O6)[C@H]5C)C(O)(COC(=O)c2ccccc2)C1 (stereo not given in full), the EC50 (Chikungunya virus [4]) was 3.9 µM and the CC50 [5] was 10.5 µM.
O=c1cc(CSc2nc3ccccc3c(=O)[nH]2)c2ccc(OCc3ccccc3)cc2o1 gave an EC50 (Chikungunya virus [3]) of over 45.2 µM.
With Cc1ccc(COc2ccc3c(CSc4nc5ccccc5c(=O)[nH]4)cc(=O)oc3c2)cc1 the CC50 at 18 h [2] was 102 µM and the EC50 (Chikungunya virus [3]) was over 2.19 µM.
For O=c1cc(CSc2nc3ccccc3c(=O)[nH]2)c2ccc(OS(=O)(=O)c3ccccc3[N+](=O)[O-])cc2o1, the selectivity ratio [1] was 8.8, the CC50 at 18 h [2] was 144 µM and the EC50 (Chikungunya virus [3]) was 17.2 µM.
For O=c1ccnc(SCc2cc(=O)oc3cc(O)ccc23)[nH]1, the EC50 (Chikungunya virus [3]) was over 331 µM.
CC1CCCCCCCC(C)C(=O)O[C@H]2/C(=C/Cl)C=C3[C@]45OC6(c7ccccc7)O[C@H]([C@@H]4[C@@H]4O[C@]4(CO)C[C@@]32O)[C@@](O)([C@@H](O6)[C@H]5C)C(C)(O)C1 (stereo not given in full) showed an EC50 (Chikungunya virus [4]) of 2.5 µM and a CC50 [5] of 5.3 µM.
O=C1CCN=C(SCc2cc(=O)oc3cc(OS(=O)(=O)c4ccccc4)ccc23)N1 showed an EC50 (Chikungunya virus [3]) of 57.4 µM.
O=C1CCN=C(SCc2cc(=O)oc3cc(OS(=O)(=O)c4ccc([N+](=O)[O-])cc4)ccc23)N1 gave an EC50 (Chikungunya virus [3]) of over 205 µM.
Compound Cc1ccc(COc2ccc3c(CSc4ncc(C)c(=O)[nH]4)cc(=O)oc3c2)cc1 has an EC50 (Chikungunya virus [3]) of over 48 µM.
With O=c1ccnc(SCc2cc(=O)oc3cc(OCc4ccc([N+](=O)[O-])cc4)ccc23)[nH]1 the selectivity ratio [1] was 3, the CC50 at 18 h [2] was 13.8 µM and the EC50 (Chikungunya virus [3]) was 4.6 µM.
Cc1ccc(S(=O)(=O)Oc2ccc3c(CSc4nc5ccccc5c(=O)[nH]4)cc(=O)oc3c2)cc1 gave a selectivity ratio [1] of 11.5, a CC50 at 18 h [2] of 117 µM and an EC50 (Chikungunya virus [3]) of 10.2 µM.
O=c1cc(-c2ccc(O)cc2)oc2cc(O)cc(O)c12 [APIGENIN] gave an IC50 (Chikungunya virus [6]) of 22.5 to 127 µM.
Compound O=C(O)[C@H]1O[C@@H](Oc2cc3oc(-c4ccccc4)cc(=O)c3c(O)c2O)[C@H](O)[C@@H](O)[C@@H]1O [BAICALIN] has a selectivity ratio [7] of 188, a Ki [8] of 0.064 µM and an IC50 (Chikungunya virus [9]) of 7 µM.
CN(C)CCCN1c2ccccc2Sc2ccc(Cl)cc21 [CHLORPROMAZINE] gave a selectivity ratio [10] of 4.5, an IC50 (Chikungunya virus [11]) of 15.7 µM and a CC50 at 48 h [12] of 67.3 µM.
In the case of O=c1cc(-c2ccccc2)oc2cc(O)cc(O)c12 [CHRYSIN], the IC50 (Chikungunya virus [6]) is reported as 22.5 to 127 µM.
In the case of CCN(CC)C(C)CN1c2ccccc2Sc2ccccc21 (stereo not given) [ETHOPROPAZINE], the selectivity ratio [10] is reported as 10.4, the IC50 (Chikungunya virus [11]) is reported as 16 µM and the CC50 at 48 h [12] is reported as 167 µM.
With O=c1c(O)c(-c2ccc(O)c(O)c2)oc2cc(O)ccc12 [FISETIN] the selectivity ratio [7] was 23 and the IC50 (Chikungunya virus [9]) was 29.5 µM.
Compound O=c1cc(-c2ccc(O)c(O)c2)oc2cc(O)cc(O)c12 [LUTEOLIN] has an IC50 (Chikungunya virus [6]) of 22.5 to 127 µM.
In the case of CN1CCC(CN2c3ccccc3Sc3ccccc32)C1 (stereo not given) [METHDILAZINE], the selectivity ratio [10] is reported as 5.6, the IC50 (Chikungunya virus [11]) is reported as 11.3 µM and the CC50 at 48 h [12] is reported as 63.8 µM.
O=C1C[C@@H](c2ccc(O)cc2)Oc2cc(O)cc(O)c21 [NARINGENIN] showed a Ki [8] of 0.685 µM.
Work on OCCN1CCN(CCCN2c3ccccc3Sc3ccc(Cl)cc32)CC1 [PERPHENAZINE] yielded a selectivity ratio [10] of 6.2, an IC50 (Chikungunya virus [11]) of 25.1 µM and a CC50 at 48 h [12] of 155 µM.
With O=c1c(O)c(-c2ccc(O)c(O)c2)oc2cc(O)c(O)c(O)c12 [QUERCETAGETIN] the selectivity ratio [7] was 16.3, the Ki [8] was 0.489 µM and the IC50 (Chikungunya virus [9]) was 25300 µM.
Compound C=C[C@H]1CN2CC[C@H]1C[C@H]2[C@H](O)c1ccnc2ccc(OC)cc12 [QUININE] has an IC50 (Chikungunya virus [13]) of 0.1 µg/mL (≈ 0.308 µM).
Compound COc1cc(C2Oc3cc([C@H]4Oc5cc(O)cc(O)c5C(=O)[C@@H]4O)ccc3OC2CO)ccc1O (stereo not given in full) [SILIBININ] has an IC50 (Chikungunya virus [6]) of 22.5 to 127 µM.
Work on CCSc1ccc2c(c1)N(CCCN1CCN(C)CC1)c1ccccc1S2 [THIETHYLPERAZINE] yielded a selectivity ratio [10] of 5.5, an IC50 (Chikungunya virus [11]) of 15 µM and a CC50 at 48 h [12] of 83.1 µM.
